Laboratory results as given in US10195185B2, “3-(1H-imidazo[4,5-C]pyridin-2-yl)-1H-pyrazolo[4,3-B]pyridines and therapeutic uses thereof” (Samumed, LLC, priority 2015, dated 2019).

Legend:
[1] = test system: Primary human fibroblasts derived from IPF patients (LL29 cells) treated with TGF-β1; assay: Inhibition of the fibrotic process: αSMA staining in TGF-β1 treated fibroblasts; type: cell-based; details: Fibroblast, 96 h, LL29 fibroblasts treated with TGF-β1, 4 days; for inhibition at 10 µM: read-out: percent inhibition in brackets beside EC50 >10 μM
Outline: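 LL29 IPF-patient lung fibroblasts in 1% FBS F12 were given compounds (11-point, 10 μM to […], 0.1% DMSO) plus TGF-β1 20 ng/mL for 4 days at 37 °C. αSMA-positive fraction of live (SYTOX-negative) cells was imaged and normalized to TGF-β1/DMSO wells. EC50 by non-linear regression, or % inhibition at 10 μM if >10 μM.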

[2] = test system: primary human mesenchymal stem cells (hMSCs); assay: Induction of chondrogenesis in hMSCs (nodule area, Rhodamine B / Nile Red); type: cell-based; details: TGF-β3 as positive control; for Emax: read-out: Max. Activity as % TGF-β3 activity; for EC50: concentration required to induce 50% levels of chondrogenesis, read-out: Conc (nM) of 50% TGF-β3 activity
Method: Representative compounds were screened using primary human mesenchymal stem cells (hMSCs) to determine their ability to induce chondrogenesis (process by which cartilage is developed).
Primary human mesenchymal stem cells (hMSCs) were purchased from Lonza (Walkersville, Md.) and expanded in Mesenchymal Stem Cell Growth Media (Lonza). Cells between passage 3 and 6 were used for the experiments.
Each compound was dissolved in DMSO as a 10 mM stock and used to prepare compound source plates. For the 96 well assay, serial dilution (1:3, 6-point dose-response curves from 2700 nM to 10 nM) and compound transfer was performed using the ECHO 550 (Labcyte, Sunnyvale, Calif.) into 96-well clear bottom assay plates (Greiner Bio-One) with appropriate DMSO backfill for a final DMSO concentration of 0.03%. hMSCs were plated at 20,000 cells/well in 250 μL/well Incomplete Chondrogenic Induction Medium (Lonza; DMEM, dexamethasone, ascorbate, insulin-transferrin-selenium [ITS supplement], gentamycin-amphotericin [GA-1000], sodium pyruvate, proline and L-glutamine). TGF-β3 (10 ng/mL) was used as a positive control for differentiation while negative control wells were treated with 75 nL DMSO for normalization and calculating EC50 values. For the 384 well assay, serial dilution (1:3, 8-point dose-response curves from 5000 nM to 2.2 nM) and compound transfer was performed using the ECHO 550 (Labcyte, Sunnyvale, Calif.) into 384-well clear bottom assay plates (Greiner Bio-One) with appropriate DMSO backfill for a final DMSO concentration of 0.03%. hMSCs were plated at 8,000 cells/well in 80 μL/well Incomplete Chondrogenic Induction Medium (Lonza; DMEM, dexamethasone, ascorbate, insulin-transferrin-selenium [ITS supplement], gentamycin-amphotericin [GA-1000], sodium pyruvate, proline and L-glutamine). TGF-β3 (10 ng/mL) was used as a positive control for differentiation while negative control wells were treated with 25 nL DMSO for normalization and calculating EC50 values. Cells were incubated at 37° C. and 5% CO2 for 6 days. To image chondrogenic nodules, the cells were fixed using 4% formaldehyde (Electron Microscopy Sciences), and stained with 2 μg/mL Rhodamine B (Sigma-Aldrich) and 20 μM Nile Red (Sigma-Aldrich) [Johnson K., et. al, A Stem Cell-Based Approach to Cartilage Repair, Science, (2012), 336(6082), 717-721]. The nodules imaged (25 images per well for 96 well plates and 9 images per well for 384 well plates at 10× magnification) by excitation at 531 nm and emission at 625 nm and quantified using the CellInsight CX5 (Thermo Scientific). Area of nodules in each well was normalized to the average of 3 DMSO treated wells on the same plate using Excel (Microsoft Inc.). The normalized averages (fold change over DMSO) of 2 or 3 replicate wells for each compound concentration were calculated. Due to solubility limitations of some of the compounds, curve fitting was incomplete leading to inaccurate EC50 determinations.
Using TGF-β3 as a positive control, the concentration of representative compounds required to induce 50% levels of chondrogenesis is reported. In addition, the maximum activity of each compound and the respective dose that each compound reached maximum chondrogenesis activity is reported.

EC50 [2] [nM] | Compound | EC50 [1] [nM] | inhibition at 10 µM [1] [%] | Emax [2] [%]
30 | Cc1cn(-c2nccc3[nH]c(-c4n[nH]c5ccc(-c6cncc(NC(=O)C(C)(C)C)c6)nc45)nc23)cn1 [Compound 204, N-(5-(3-(4-(4-Methyl-1H-imidazol-1-yl)-1H-imidazo[4,5-c]pyridin-2-yl)-1H-pyrazolo[4,3-b]pyridin-5-yl)pyridin-3-yl)pivalamide] | > 10000 | 8.1 | 70
2700 | Cc1ccncc1-c1ccc2[nH]nc(-c3nc4c(-c5ccncc5)nccc4[nH]3)c2n1 [Compound 117, 5-(4-Methylpyridin-3-yl)-3-(4-(pyridin-4-yl)-1H-imidazo[4,5-c]pyridin-2-yl)-1H-pyrazolo[4,3-b]pyridine] | > 10000 | 0 | 53
10 | CC(C)(C)CC(=O)Nc1cncc(-c2ccc3[nH]nc(-c4nc5cnccc5[nH]4)c3n2)c1 [Compound 268, N-(5-(3-(1H-Imidazo[4,5-c]pyridin-2-yl)-1H-pyrazolo[4,3-b]pyridin-5-yl)pyridin-3-yl)-3,3-dimethylbutanamide] | > 10000 | 0 | 54
30 | CCC(=O)Nc1cncc(-c2ccc3[nH]nc(-c4nc5c(N6CCCCC6)nccc5[nH]4)c3n2)c1 [Compound 169, N-(5-(3-(4-(Piperidin-1-yl)-1H-imidazo[4,5-c]pyridin-2-yl)-1H-pyrazolo [4,3-b]pyridin-5-yl)pyridin-3-yl)propionamide] | 7890 | – | 69
900 | Fc1ccc(-c2nccc3[nH]c(-c4n[nH]c5ccc(-c6cncnc6)nc45)nc23)cc1 [Compound 55, 3-(4-(4-Fluorophenyl)-1H-imidazo[4,5-c]pyridin-2-yl)-5-(pyrimidin-5-yl)-1H-pyrazolo[4,3-b]pyridine] | 2180 | – | 139
10 | Nc1cncc(-c2ccc3[nH]nc(-c4nc5c(-c6ccccc6F)nccc5[nH]4)c3n2)c1 [Compound 59, 5-(3-(4-(2-Fluorophenyl)-1H-imidazo[4,5-c]pyridin-2-yl)-1H-pyrazolo[4,3-b]pyridin-5-yl)pyridin-3-amine] | > 10000 | 0 | 108
10 | Clc1ccc(-c2nccc3[nH]c(-c4n[nH]c5ccc(-c6cncc(CN7CCCC7)c6)nc45)nc23)s1 [Compound 1049, 3-(4-(5-Chlorothiophen-2-yl)-1H-imidazo[4,5-c]pyridin-2-yl)-5-(5-(pyrrolidin-1-ylmethyl)pyridin-3-yl)-1H-pyrazolo [4,3-b]pyridine] | 1190 | – | 59
– | Cc1ncc(-c2ccc3[nH]nc(-c4nc5c(-c6cccc(F)c6)nccc5[nH]4)c3n2)s1 [Compound 1126, 5-(3-(4-(3-Fluorophenyl)-1H-imidazo[4,5-c]pyridin-2-yl)-1H-pyrazolo[4,3-b]pyridin-5-yl)-2-methylthiazole] | 203 | – | 43
– | O=C(Nc1cncc(-c2ccc3[nH]nc(-c4nc5c(-c6ccc(F)cc6)nccc5[nH]4)c3n2)c1)C1CCC1 [Compound 49, N-(5-(3-(4-(4-Fluorophenyl)-1H-imidazo[4,5-c]pyridin-2-yl)-1H-pyrazolo [4,3-b]pyridin-5-yl)pyridin-3-yl)cyclobutanecarboxamide] | > 10000 | 7.5 | 45
10 | CCCCC(=O)Nc1cncc(-c2ccc3[nH]nc(-c4nc5c(-c6ccoc6)nccc5[nH]4)c3n2)c1 [Compound 327, N-(5-(3-(4-(Furan-3-yl)-1H-imidazo[4,5-c]pyridin-2-yl)-1H-pyrazolo[4,3-b]pyridin-5-yl)pyridin-3-yl)pentanamide] | > 10000 | 0 | 91
30 | Cc1cn(-c2nccc3[nH]c(-c4n[nH]c5ccc(-c6cncc(NC(=O)CC(C)C)c6)nc45)nc23)cn1 [Compound 198] | > 10000 | 4.5 | 69
300 | CCCC(=O)Nc1cncc(-c2ccc3[nH]nc(-c4nc5c(-c6ccncc6)nccc5[nH]4)c3n2)c1 [Compound 129, N-(5-(3-(4-(Pyridin-4-yl)-1H-imidazo[4,5-c]pyridin-2-yl)-1H-pyrazolo[4,3-b]pyridin-5-yl)pyridin-3-yl)butyramide] | > 10000 | 0 | 70
100 | FC1(F)CCN(Cc2cncc(-c3ccc4[nH]nc(-c5nc6c(-c7ccsc7)nccc6[nH]5)c4n3)c2)C1 [Compound 306, 5-(5-((3,3-difluoropyrrolidin-1-yl)methyl)pyridin-3-yl)-3-(4-(thiophen-3-yl)-1H-imidazo[4,5-c]pyridin-2-yl)-1H-pyrazolo[4,3-b]pyridine] | 1240 | – | 53
– | CC(C)C(=O)Nc1cncc(-c2ccc3[nH]nc(-c4nc5c(-c6cccnc6)nccc5[nH]4)c3n2)c1 [Compound 93, N-(5-(3-(4-(Pyridin-3-yl)-1H-imidazo[4,5-c]pyridin-2-yl)-1H-pyrazolo[4,3-b]pyridin-5-yl)pyridin-3-yl)isobutyramide] | 2010 | – | 32
10 | CC(C)Nc1cncc(-c2ccc3[nH]nc(-c4nc5c(-c6cccnc6)nccc5[nH]4)c3n2)c1 [Compound 96, N-Isopropyl-5-(3-(4-(pyridin-3-yl)-1H-imidazo[4,5-c]pyridin-2-yl)-1H-pyrazolo[4,3-b]pyridin-5-yl)pyridin-3-amine] | 1250 | – | 54
30 | O=C(Cc1ccccc1)Nc1cncc(-c2ccc3[nH]nc(-c4nc5c(-c6ccncc6)nccc5[nH]4)c3n2)c1 [Compound 122, 2-phenyl-N-(5-(3-(4-(pyridin-4-yl)-1H-imidazo[4,5-c]pyridin-2-yl)-1H-pyrazolo[4,3-b]pyridin-5-yl)pyridin-3-yl)acetamide] | > 10000 | 0 | 74
– | CN(C)Cc1cncc(-c2ccc3[nH]nc(-c4nc5c(N6CCCCC6)nccc5[nH]4)c3n2)c1 [Compound 181, N,N-Dimethyl-1-(5-(3-(4-(piperidin-1-yl)-1H-imidazo[4,5-c]pyridin-2-yl)-1H-pyrazolo [4,3-b]pyridin-5-yl)pyridin-3-yl)methanamine] | 4050 | – | 43
30 | COc1cccc(-c2nccc3[nH]c(-c4n[nH]c5ccc(-c6cccnc6)nc45)nc23)c1 [Compound 994, 3-(4-(3-Methoxyphenyl)-1H-imidazo[4,5-c]pyridin-2-yl)-5-(pyridin-3-yl)-1H-pyrazolo[4,3-b]pyridine] | 4710 | – | 51
– | COc1cccc(-c2nccc3[nH]c(-c4n[nH]c5ccc(-c6cncc(NC(=O)Cc7ccccc7)c6)nc45)nc23)c1 [Compound 1000, N-(5-(3-(4-(3-methoxyphenyl)-1H-imidazo[4,5-c]pyridin-2-yl)-1H-pyrazolo [4,3-b]pyridin-5-yl)pyridin-3-yl)-2-phenylacetamide] | 2550 | – | 41
5000 | CCC(=O)Nc1cncc(-c2ccc3[nH]nc(-c4nc5c(-c6cccc(F)c6)nccc5[nH]4)c3n2)c1 [Compound 1, N-(5-(3-(4-(3-Fluorophenyl)-1H-imidazo[4,5-c]pyridin-2-yl)-1H-pyrazolo [4,3-b]pyridin-5-yl)pyridin-3-yl)propionamide] | > 10000 | 0 | 95
